# Test results from PubChem BioAssay AID1259411 (Chemical Carcinogenesis Research Information System (CCRIS), 2018).
# Activity calls are given as the source filed them. No rule for the calls is given here.
# Test system: rodent carcinogenicity bioassays, tumor incidence
# Assay: CCRIS carcinogenicity studies
# Method in brief: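 NCI-built, expert-reviewed records of carcinogenicity and related test outcomes (mutagenicity, tumor promotion/inhibition) compiled from published and report sources, historical span 1985-2011, not updated.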
structure (smiles),measurement,setting,value
CN(C)C(=O)NN=O,carcinogen call,"Species: HAMSTER, Strain/Sex: SYRIAN/FEMALE, Route: SUBCUTANEOUS, Dose: 40 MG/KG 1/WK, Tumor Site: Type of Lesion: FORESTOMACH: SQUAMOUS CELL CARCINOMA, MAMMARY GLAND: ADENOCARCINOMA OR ADENOACANTHOMA, UTERUS: ADENOACANTHOMA, Tumor Site: Type of Lesion: FORESTOMACH: SQUAMOUS CELL CARCINOMA, MAMMARY GLAND: ADENOCARCINOMA OR ADENOACANTHOMA, UTERUS: ADENOACANTHOMA",active; positive
same,carcinogen call,"Species: HAMSTER, Strain/Sex: SYRIAN/MALE, Route: SUBCUTANEOUS, Dose: 40 MG/KG 1/WK, Tumor Site: Type of Lesion: FORESTOMACH: SQUAMOUS CELL CARCINOMA",active; positive
same,carcinogen call,"Species: MOUSE, Strain/Sex: C3H/FEMALE, Route: SUBCUTANEOUS, Dose: 80 MG/KG 1/WK (TOTAL AVE DOSE 1015 MG/KG), Tumor Site: Type of Lesion: LYMPHATIC SYSTEM: MALIGNANT LYMPHOMA",active; positive
same,carcinogen call,"Species: MOUSE, Strain/Sex: C3H/MALE, Route: SUBCUTANEOUS, Dose: 80 MG/KG 1/WK (TOTAL AVE DOSE 1073 MG/KG), Tumor Site: Type of Lesion: LYMPHATIC SYSTEM: MALIGNANT LYMPHOMA",active; positive
Nc1nc(N)c2nc(-c3ccccc3)c(N)nc2n1,carcinogen call,"Species: MOUSE, Strain/Sex: B6C3F1/FEMALE, Route: ORAL, Dose: 0, 100, 200, 400 PPM IN FEED FOR 104 WK (STUDY DURATION: 2 YR), Dose: 0, 100, 200, 400 PPM IN FEED FOR 104 WK (STUDY DURATION: 2 YR), Tumor Site: Type of Lesion: LIVER: HEPATOCELLULAR ADENOMA",active; positive
same,carcinogen call,"Species: MOUSE, Strain/Sex: B6C3F1/FEMALE, Route: ORAL, Dose: 0, 400 PPM IN FEED FOR 104 WK (STUDY DURATION: 2 YR), Tumor Site: Type of Lesion: LIVER: HEPATOCELLULAR ADENOMA",active; positive
same,carcinogen call,"Species: MOUSE, Strain/Sex: B6C3F1/MALE, Route: ORAL, Dose: 0, 100, 200, 400 PPM IN FEED FOR 104 WK (STUDY DURATION: 2 YR), Dose: 0, 100, 200, 400 PPM IN FEED FOR 104 WK (STUDY DURATION: 2 YR), Tumor Site: Type of Lesion: LIVER: HEPATOCELLULAR CARCINOMA",active; positive
same,carcinogen call,"Species: MOUSE, Strain/Sex: B6C3F1/MALE, Route: ORAL, Dose: 0, 400 PPM IN FEED FOR 104 WK (STUDY DURATION: 2 YR), Tumor Site: Type of Lesion: LIVER: HEPATOCELLULAR ADENOMA",active; positive
same,carcinogen call,"Species: RAT, Strain/Sex: F344/FEMALE, Route: ORAL, Dose: 0, 150, 300, 600 PPM IN FEED FOR 104 WK (STUDY DURATION: 2 YR), Dose: 0, 150, 300, 600 PPM IN FEED FOR 104 WK (STUDY DURATION: 2 YR)",inactive; negative
same,carcinogen call,"Species: RAT, Strain/Sex: F344/MALE, Route: ORAL, Dose: 0, 150, 300, 600 PPM IN FEED FOR 104 WK (STUDY DURATION: 105 WK), Dose: 0, 150, 300, 600 PPM IN FEED FOR 104 WK (STUDY DURATION: 105 WK), Tumor Site: Type of Lesion: LIVER: ADENOMA",equivocal
C#C[C@]1(O)CC[C@H]2[C@@H]3CCc4cc(O)ccc4[C@H]3CC[C@@]21C,carcinogen call,"Species: MOUSE, Route: ORAL, Tumor Site: Type of Lesion: CERVIX, MAMMARY GLAND, PITUITARY GLAND, UTERUS, Tumor Site: Type of Lesion: CERVIX, MAMMARY GLAND, PITUITARY GLAND, UTERUS",active; positive
same,carcinogen call,"Species: MOUSE, Strain/Sex: CD-1/FEMALE, Route: SUBCUTANEOUS, Dose: 0, 2 UG/D IN CORN OIL ON DAYS 1-5 OF LIFE (STUDY DURATION: 12-18 WK), Tumor Site: Type of Lesion: UTERUS: ADENOCARCINOMA",active; positive
same,carcinogen call,"Species: RAT, Route: ORAL, SUBCUTANEOUS, Tumor Site: Type of Lesion: LIVER",active; positive
same,carcinogen call,"Species: Rat, Strain/Sex: Sprague-Dawley/Female (50/Group), Route: Oral, Dose: 0, 2, 10, 50 ppb in diet, continuous exposure from conception through 2 yr, Dose: 0, 2, 10",inactive; negative
same,carcinogen call,"Species: Rat, Strain/Sex: Sprague-Dawley/Female (50/Group), Route: Oral, Dose: 0, 2, 10, 50 ppb in diet, continuous exposure from conception through PND 140, followed by control diet to 2 yr, Dose: 0, 2, 10","inactive; negative (authors describe as equivocal evidence based on stromal polyp (2/51, 5"
same,carcinogen call,"Species: Rat, Strain/Sex: Sprague-Dawley/Male (50/Group), Route: Oral, Dose: 0, 2, 10, 50 ppb in diet, continuous exposure from conception through 2 yr, Dose: 0, 2, 10",inactive; negative
same,carcinogen call,"Species: Rat, Strain/Sex: Sprague-Dawley/Male (50/Group), Route: Oral, Dose: 0, 2, 10, 50 ppb in diet, continuous exposure from conception through PND 140, followed by control diet to 2 yr, Dose: 0, 2, 10",inactive; negative
OC1c2ccc3cc4ccccc4nc3c2C2OC2C1O (stereo not drawn),carcinogen call,"Species: MOUSE, Strain/Sex: SWISS/FEMALE, Route: INTRAPERITONEAL, Dose: 0, 0.5 UMOL GIVEN AS 70 NMOL IN 5 µL DMSO WITHIN 24 HR OF BIRTH, 140 NMOL IN 10 µL DMSO ON D 8 OF LIFE, AND 280 NMOL IN, Tumor Site: Type of Lesion: LUNG: ADENOMA",active; positive
same,carcinogen call,"Species: MOUSE, Strain/Sex: SWISS/FEMALE, Route: INTRAPERITONEAL, Dose: 0, 1.05 UMOL GIVEN AS 150 NMOL IN 5 µL DMSO WITHIN 24 HR OF BIRTH, 300 NMOL IN 10 µL DMSO ON D 8 OF LIFE, AND 600 NMOL I, Tumor Site: Type of Lesion: LUNG: ADENOMA",active; positive
same,carcinogen call,"Species: MOUSE, Strain/Sex: SWISS/MALE, Route: INTRAPERITONEAL, Dose: 0, 0.5 UMOL GIVEN AS 70 NMOL IN 5 µL DMSO WITHIN 24 HR OF BIRTH, 140 NMOL IN 10 µL DMSO ON D 8 OF LIFE, AND 280 NMOL IN, Tumor Site: Type of Lesion: LUNG: ADENOMA, LIVER: NEOPLASTIC NODULE",active; positive
same,carcinogen call,"Species: MOUSE, Strain/Sex: SWISS/MALE, Route: INTRAPERITONEAL, Dose: 0, 1.05 UMOL GIVEN AS 150 NMOL IN 5 µL DMSO WITHIN 24 HR OF BIRTH, 300 NMOL IN 10 µL DMSO ON D 8 OF LIFE, AND 600 NMOL I, Tumor Site: Type of Lesion: LUNG: ADENOMA, LIVER: NEOPLASTIC NODULE",active; positive
Nc1ccc(C(=O)Nc2ccccc2N)cc1,carcinogen call,"Species: RAT, Strain/Sex: CD-1/FEMALE, Route: GAVAGE, Dose: 0, 1, 3, 9 (WK 1-25), 6 (WK 26-46), 5 (WK 47-106) MG/KG IN 0.8% METHOCEL (TOTAL VOLUME 0.2-0.5 ML/RAT 2/WK FOR 105 WK (M, Dose: 0, 1, 3, 9 (WK 1-25), 6 (WK 26-46), 5 (WK 47-106) MG/KG IN 0.8% METHOCEL (TOTAL VOLUME 0.2-0.5 ML/RAT 2/WK FOR 105 WK (M, Tumor Site: Type of Lesion: ADRENAL GLAND: TUMOR, OVARIES: TUMOR, VAGINA: TUMOR, Tumor Site: Type of Lesion: ADRENAL GLAND: TUMOR, OVARIES: TUMOR, VAGINA: TUMOR",active; positive
same,carcinogen call,"Species: RAT, Strain/Sex: CD-1/MALE, Route: GAVAGE, Dose: 0, 1, 3, 9 (WK 1-25), 6 (WK 26-46), 5 (WK 47-106) MG/KG IN 0.8% METHOCEL(TOTAL VOLUME 0.2-0.5 ML/RAT 2/WK FOR 105 WK (ME, Dose: 0, 1, 3, 9 (WK 1-25), 6 (WK 26-46), 5 (WK 47-106) MG/KG IN 0.8% METHOCEL(TOTAL VOLUME 0.2-0.5 ML/RAT 2/WK FOR 105 WK (ME, Tumor Site: Type of Lesion: ADRENAL GLAND: TUMOR, TESTES: TUMOR",active; positive
CC[C@H]1OC(=O)[C@H](C)[C@@H](O[C@H]2C[C@@](C)(OC)[C@@H](O)[C@H](C)O2)[C@H](C)[C@@H](O[C@@H]2O[C@H](C)C[C@H](N(C)C)[C@H]2O)[C@](C)(O)C[C@@H](C)C(=O)[C@H](C)[C@@H](O)[C@]1(C)O,carcinogen call,"Species: MOUSE, Strain/Sex: B6C3F1/FEMALE, Route: ORAL, Dose: 0, 2500, 5000 PPM IN FEED FOR 103 WK (STUDY DURATION: 104 WK), Dose: 0, 2500, 5000 PPM IN FEED FOR 103 WK (STUDY DURATION: 104 WK)",inactive; negative
same,carcinogen call,"Species: MOUSE, Strain/Sex: B6C3F1/MALE, Route: ORAL, Dose: 0, 2500, 5000 PPM IN FEED FOR 103 WK (STUDY DURATION: 104 WK), Dose: 0, 2500, 5000 PPM IN FEED FOR 103 WK (STUDY DURATION: 104 WK)",inactive; negative
same,carcinogen call,"Species: RAT, Strain/Sex: F344/FEMALE, Route: ORAL, Dose: 0, 5000, 10000 PPM IN FEED FOR 103 WK (STUDY DURATION: 104 WK), Dose: 0, 5000, 10000 PPM IN FEED FOR 103 WK (STUDY DURATION: 104 WK)",inactive; negative
same,carcinogen call,"Species: RAT, Strain/Sex: F344/MALE, Route: ORAL, Dose: 0, 5000, 10000 PPM IN FEED FOR 103 WK (STUDY DURATION: 104 WK), Dose: 0, 5000, 10000 PPM IN FEED FOR 103 WK (STUDY DURATION: 104 WK)",inactive; negative
C[C@]12CC[C@@H]3c4ccc(O)cc4CC[C@H]3[C@@H]1CC[C@H]2O,carcinogen call,"Species: HAMSTER, Strain/Sex: SYRIAN/MALE, Route: SUBCUTANEOUS IMPLANT, Dose: 0, 20 MG IN PELLETS IMPLANTED EVERY 2.5 MO FOR 9 MO (STUDY DURATION: 9 MO)",inactive; negative
